The target of experiment [1] is T1, Lecithin retinol acyltransferase (Bos taurus) (UniProt Q9BGL2).
T1 sequence (whole entry): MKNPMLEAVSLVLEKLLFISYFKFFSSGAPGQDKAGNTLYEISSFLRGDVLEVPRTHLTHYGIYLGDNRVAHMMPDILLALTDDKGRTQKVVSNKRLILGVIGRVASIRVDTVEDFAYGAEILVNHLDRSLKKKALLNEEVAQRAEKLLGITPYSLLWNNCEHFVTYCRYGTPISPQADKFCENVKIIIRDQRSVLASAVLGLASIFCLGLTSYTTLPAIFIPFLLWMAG
Particulars: at 100 µM.
Description: Inhibition of LRAT in bovine RPE microsomes at 100 uM using retinol substrate in presence of Palmitoyl-CoA incubated for 5 mins by HPLC analysis relative to control

The target in experiment [2] is T2, Diacylglycerol O-acyltransferase 1 (Bos taurus) (UniProt Q8MK44).
T2 sequence (whole entry): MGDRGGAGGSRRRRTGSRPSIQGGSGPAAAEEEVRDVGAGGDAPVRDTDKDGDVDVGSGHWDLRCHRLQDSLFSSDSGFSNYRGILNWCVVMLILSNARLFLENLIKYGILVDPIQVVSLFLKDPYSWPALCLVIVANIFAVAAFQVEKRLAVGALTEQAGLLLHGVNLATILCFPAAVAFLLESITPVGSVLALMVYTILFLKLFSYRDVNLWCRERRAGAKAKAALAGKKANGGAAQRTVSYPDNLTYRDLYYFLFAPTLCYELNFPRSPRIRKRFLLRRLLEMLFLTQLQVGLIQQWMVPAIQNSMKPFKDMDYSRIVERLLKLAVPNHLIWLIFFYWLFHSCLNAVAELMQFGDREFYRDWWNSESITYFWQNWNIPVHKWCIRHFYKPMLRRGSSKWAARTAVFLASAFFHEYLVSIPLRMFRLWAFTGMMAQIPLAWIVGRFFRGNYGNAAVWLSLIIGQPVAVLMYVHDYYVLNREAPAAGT
The experiment can be described thus: Inhibition of ARAT in bovine RPE microsomes at 10 uM using retinol substrate in presence of dilauroyl-phosphatidyl choline incubated for 5 mins by HPLC analysis relative to control.

Experiment [3] is filed under the species Homo sapiens.
Description: Inhibition of transglutaminase in human keratinocytes in presence of 10 uM retinal relative to retinal alone
In experiment [4] the target is T1, Lecithin retinol acyltransferase (Bos taurus). The experiment can be described thus: Inhibition of LRAT in bovine RPE microsomes at 10 uM using retinol substrate in presence of Palmitoyl-CoA incubated for 5 mins by HPLC analysis relative to control.
Experiment [5] has as its target T2, Diacylglycerol O-acyltransferase 1 (Bos taurus). Particulars: at 100 µM.
Description: Inhibition of ARAT in bovine RPE microsomes at 100 uM using retinol substrate in presence of dilauroyl-phosphatidyl choline incubated for 5 mins by HPLC analysis relative to control
For experiment [6], the species on record is Homo sapiens. The experiment can be described thus: Inhibition of transglutaminase in human keratinocytes assessed as mean transglutaminase activity level at 1.65 10^-7M in presence of 10 uM retinal relative to retinal alone. Format: cell-based. Details: scale not given: the % may be the effect or the level left.
For experiment [7], the species on record is Homo sapiens. The experiment can be described thus: Inhibition of transglutaminase in human keratinocytes assessed as mean transglutaminase activity level at 4.1 10^-5M in presence of 10 uM retinal relative to retinal alone. Details: scale not given: the % may be the effect or the level left. In kind it is cell-based.
The species entered for experiment [8] is Homo sapiens. In words: Inhibition of transglutaminase in human keratinocytes assessed as mean transglutaminase activity level at 3.29 10^-7M in presence of 10 uM retinal relative to retinal alone. Format: cell-based. On the set-up: scale not given: the % may be the effect or the level left.
The species named for experiment [9] is Homo sapiens. In words: Inhibition of transglutaminase in human keratinocytes assessed as mean transglutaminase activity level at 3.73 10^-4M in presence of 10 uM retinal relative to retinal alone. On the set-up: scale not given: the % may be the effect or the level left. In kind it is cell-based.
The species entered for experiment [10] is Homo sapiens. In words: Inhibition of transglutaminase in human keratinocytes assessed as mean transglutaminase activity level at 1.0 10^-3M in presence of 10 uM retinal relative to retinal alone. In kind it is cell-based. On the set-up: scale not given: the % may be the effect or the level left.
For experiment [11], the species on record is Homo sapiens. In words: Inhibition of transglutaminase in human keratinocytes assessed as mean transglutaminase activity level at 8.2 10^-6M in presence of 10 uM retinal relative to retinal alone. In kind it is cell-based. On the set-up: scale not given: the % may be the effect or the level left.
For experiment [12], the species on record is Homo sapiens. The experiment can be described thus: Inhibition of transglutaminase in human keratinocytes assessed as mean transglutaminase activity level at 1.1 10^-4M in presence of 10 uM retinal relative to retinal alone. Details: scale not given: the % may be the effect or the level left. In kind it is cell-based.
Experiment [13] is filed under the species Homo sapiens. The experiment can be described thus: Inhibition of transglutaminase in human keratinocytes assessed as mean transglutaminase activity level at 8.2 10^-8M in presence of 10 uM retinal relative to retinal alone. Details: scale not given: the % may be the effect or the level left. Format: cell-based.
For experiment [14], the species on record is Homo sapiens. In words: Inhibition of transglutaminase in human keratinocytes assessed as mean transglutaminase activity level at 3.3 10^-6M in presence of 10 uM retinal relative to retinal alone. Details: scale not given: the % may be the effect or the level left. Format: cell-based.
Experiment [15] is filed under the species Homo sapiens. In words: Inhibition of transglutaminase in human keratinocytes assessed as mean transglutaminase activity level at 1.65 10^-9M in presence of 10 uM retinal relative to retinal alone. Format: cell-based. Details: scale not given: the % may be the effect or the level left.
The species entered for experiment [16] is Homo sapiens. In words: Inhibition of transglutaminase in human keratinocytes assessed as mean transglutaminase activity level at 3.73 10^-7M in presence of 10 uM retinal relative to retinal alone. Format: cell-based. Details: scale not given: the % may be the effect or the level left.
Experiment [17] is filed under the species Homo sapiens. The experiment can be described thus: Inhibition of transglutaminase in human keratinocytes assessed as mean transglutaminase activity level at 4.1 10^-8M in presence of 10 uM retinal relative to retinal alone. On the set-up: scale not given: the % may be the effect or the level left. Format: cell-based.
The species named for another experiment is Rattus norvegicus. The experiment can be described thus: Inhibition of retinal reductase in Sprague-Dawley rat liver microsomes at 100 uM using all-trans retinaldehyde and NADPH by HPLC analysis relative to control. A general note: Liver microsomes are vesicles of endoplasmic reticulum, rich in cytochrome P450 enzymes.
Experiment [18] is filed under the species Homo sapiens. In words: Inhibition of transglutaminase in human keratinocytes assessed as mean transglutaminase activity level at 3 10^-5M in presence of 10 uM retinal relative to retinal alone. In kind it is cell-based. On the set-up: scale not given: the % may be the effect or the level left.
The species entered for experiment [19] is Homo sapiens. The experiment can be described thus: Inhibition of transglutaminase in human keratinocytes assessed as mean transglutaminase activity level at 1.1 10^-6M in presence of 10 uM retinal relative to retinal alone. In kind it is cell-based. Details: scale not given: the % may be the effect or the level left.
The species named for experiment [20] is Homo sapiens. In words: Inhibition of transglutaminase in human keratinocytes assessed as mean transglutaminase activity level at 1.23 10^-7M in presence of 10 uM retinal relative to retinal alone. On the set-up: scale not given: the % may be the effect or the level left. Format: cell-based.
The species entered for experiment [21] is Homo sapiens. In words: Inhibition of transglutaminase in human keratinocytes assessed as mean transglutaminase activity level at 3.29 10^-9M in presence of 10 uM retinal relative to retinal alone. In kind it is cell-based. Details: scale not given: the % may be the effect or the level left.
For experiment [22], the species on record is Homo sapiens. The experiment can be described thus: Inhibition of transglutaminase in human keratinocytes assessed as mean transglutaminase activity level at 1 10^-5M in presence of 10 uM retinal relative to retinal alone. In kind it is cell-based. Details: scale not given: the % may be the effect or the level left.

SMILES strings stand for the structures.

For 21 compounds, inhibition, IC20 and Activity results are on record in ChEMBL document CHEMBL4420071, “Method for treating skin with retinoids and retinoid boosters” (2013).

What is called inhibition is the share of the control response that was lost under treatment.

On to `CCN(CC)CC(=O)Nc1c(C)cccc1C`, for which the inhibition in [1] turned out to be 0%.
For the compound `CC(C)=CCCC(C)=CCCC(C)=CCO`, the inhibition in [2] worked out at 23%; in [4] it was 10%; in experiment [5], 53%; in [1] it was 53%. Besides, in the experiment listed under Homo sapiens [3], the IC20 worked out at 7.82 ×10⁻⁵ M.
Take `CCCCCCCCCCCC(=O)NCCC[N+](C)(C)CC(=O)[O-]`: the inhibition in [5] worked out at 25%.
Turning to `CC(C)=CCC/C(C)=C/CC/C(C)=C/CC/C(C)=C/CO`, the inhibition in experiment [2] came to 38%; in experiment [4] it was 16%; in experiment [5], 81%; in experiment [1], 77%.
As for `CC1=CCCC(C)(C)C1/C=C/C(=O)CC(C)C` (centres undefined), the inhibition in [5] stood at 8%; in experiment [1], 45%.
`CCCCCCCCCCCCCC(=O)O`: the Activity in the experiment listed under Homo sapiens [6] is 88.9%; in the experiment listed under Homo sapiens [7], 75.1%; in the experiment listed under Homo sapiens [8], 101%; in the experiment filed under Homo sapiens [9] it was -6%; in the experiment listed under Homo sapiens [10], -2%; in the experiment filed under Homo sapiens [11], 74.2%. In addition, the Activity in the experiment listed under Homo sapiens [12] is -8%. Further, in the experiment filed under Homo sapiens [3], the IC20 turned out to be 1.05 ×10⁻⁵ M.
`CC(C)(C)C(=O)C(Oc1ccc(Cl)cc1)n1ccnc1` (centres undefined): in the experiment listed under Homo sapiens [3], the IC20 is 2.45 ×10⁻⁷ M.
Take `C=CCCC(=O)/C=C/C1C(C)=CCCC1(C)C` (centres undefined): the inhibition in [4] is 17%.
Regarding `Clc1ccc(COC(Cn2ccnc2)c2ccc(Cl)cc2Cl)c(Cl)c1` (centres undefined), the IC20 in the experiment listed under Homo sapiens [3] was 8.42 ×10⁻⁸ M.
Turning to `CC1=CC(C)C(CO)C(C)C1` (centres undefined), the inhibition amounted to 18% in experiment [5] and 16% in [1].
Take `O=c1c2cccc3cccc(c32)c2nc3ccccc3n12`: the IC20 in the experiment filed under Homo sapiens [3] was found to be 4.69 ×10⁻⁷ M.
`O=c1ccc2ccccc2[nH]1` showed an IC20 in the experiment filed under Homo sapiens [3] of 1.7 ×10⁻⁴ M.
`CCCCCCCCCCCC1=NCCN1CCO`: the IC20 in the experiment filed under Homo sapiens [3] stood at 2.69 ×10⁻⁷ M.
As for `CCCCC/C=C\C/C=C\CCCCCCCC(=O)NC(C)c1ccccc1` (centres undefined), the inhibition in experiment [5] came to 64%; in experiment [1], 43%.
In turn, `CCOC(=O)C1=C(C)C=CCC1(C)C` had an inhibition in experiment [1] of 49%.
In the case of `C/C=C/C(=O)C1C(C)C=CCC1(C)C` (centres undefined), the inhibition in experiment [4] was determined as 64%; in [1], 95%.
In the case of `CC(=O)/C=C/C1C(C)=CCCC1(C)C` (centres undefined), the IC20 in the experiment listed under Homo sapiens [3] is 1.42 ×10⁻⁴ M.
Turning to `CCCCCCCCCCCCCC(=O)N(C)CC(=O)O`, the inhibition in experiment [5] is 41%; in experiment [1], 11%.
The like results for `CCCCC/C=C\C/C=C\CCCCCCCC(=O)NCCCN(C)C` were, in that order, 69% and 75%.
Turning to `C/C=C/C(=O)C1=C(C)C=CCC1(C)C`, the inhibition in experiment [4] was 29%; in experiment [5] it was 70%; in [1], 79%.
Take `CC1(C)[C@@H](OC(=O)CCC(=O)O)CC[C@]2(C)[C@H]3C(=O)C=C4[C@@H]5C[C@@](C)(C(=O)O)CC[C@]5(C)CC[C@@]4(C)[C@]3(C)CC[C@@H]12`: the Activity in the experiment listed under Homo sapiens [13] was 112%; in the experiment listed under Homo sapiens [14] it was 51.7%; in the experiment filed under Homo sapiens [15], 77.8%; in the experiment listed under Homo sapiens [16], 126%; in the experiment filed under Homo sapiens [17], 135%; in the experiment filed under Homo sapiens [18], -7.1%. Moreover, the Activity in the experiment filed under Homo sapiens [19] was determined as 158%; in the experiment listed under Homo sapiens [20], 81%; in the experiment listed under Homo sapiens [21], 64%; in the experiment listed under Homo sapiens [22] it was 27.3%. Further, the IC20 in the experiment filed under Homo sapiens [3] amounted to 2 ×10⁻⁷ M. For the same compound, the inhibition in the experiment listed under Rattus norvegicus came out at 26%.
